Reference: ChEMBL document CHEMBL1201862, “PubChem BioAssay data set” (2004)
Calls of active or inactive are those of the source. Unless noted, the calls are words filed in the database; no cut-off is given here.

Columns and labels:
[1] = Luminescence Cell-Based Dose Confirmation HTS to Identify Inhibitors of Platelet Dense Granule Release. [Related pubchem assays: 1663 (Primary HTS), 1678 (Summary of Project)]; type: functional
[2] = target: T1, E3 ubiquitin-protein ligase XIAP (Homo sapiens, UniProt P98170); assay: Counter Screen using XIAP-Bir3 for Chemical Antagonists of Bir1/2 domains of IAP-family anti-apoptotic proteins. [Related pubchem assays (depositor defined):AID1018, AID1449, AID1514, AID1638, AID1749, AID1750, AID488957, AID488963]
[3] = target: Luciferin 4-monooxygenase (Photinus pyralis, UniProt P08659); assay: inhibition of purified Photinus pyralis luciferase – biochemical, luminescence, dose response (AID 1891)
[4] = target: T1, E3 ubiquitin-protein ligase XIAP; assay: small molecules displacing peptide from XIAP – biochemical, IAP family, fluorescence polarization (AID 1018); type: functional
[5] = target: T2, Tyrosine-protein phosphatase non-receptor type 7 (Homo sapiens, UniProt P35236); assay: redox-active compounds inhibiting HePTP phosphatase – biochemical, fluorescence, mechanism study (AID 2068); type: functional
T2 sequence (P35236 whole entry): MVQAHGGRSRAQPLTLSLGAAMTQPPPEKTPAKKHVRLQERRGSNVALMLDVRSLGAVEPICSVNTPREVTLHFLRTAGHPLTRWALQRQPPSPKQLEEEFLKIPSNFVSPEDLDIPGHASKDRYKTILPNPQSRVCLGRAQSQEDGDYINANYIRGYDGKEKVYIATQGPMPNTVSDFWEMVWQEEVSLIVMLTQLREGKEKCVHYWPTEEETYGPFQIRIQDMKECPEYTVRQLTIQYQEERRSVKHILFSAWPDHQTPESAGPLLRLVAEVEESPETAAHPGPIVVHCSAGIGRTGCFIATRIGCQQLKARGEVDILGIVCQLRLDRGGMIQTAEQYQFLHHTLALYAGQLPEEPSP

[6] = target: Mu-type opioid receptor (Homo sapiens, UniProt P35372); assay: SAR Analysis of Antagonists of the MOR Receptor using an Image-Based Assay - Set 3. [Related pubchem assays (depositor defined):AID1777, AID1785, AID1786, AID1966, AID2133, AID2136, AID2284, AID2285, AID2420]; type: functional
[7] = target: T3, Kappa-type opioid receptor (Homo sapiens, UniProt P41145); assay: SAR analysis of small molecule antagonists of the kappa opioid receptor via a luminescent beta-arrestin assay - Set 4. [Related pubchem assays (depositor defined):AID1777, AID1778, AID1785, AID1786, AID1966, AID2133, AID2136, AID2285]; type: functional
[8] = target: Delta-type opioid receptor (Homo sapiens, UniProt P41143); assay: SAR Analysis of Antagonists of the DOR Receptor using an Image-Based Assay - Set 3. [Related pubchem assays (depositor defined):AID1777, AID1785]; type: functional;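 further: U2OS cells expressing DOR1 and beta-arrestin GFP stimulated with 100 nM SNC80; imaging of GFP-tagged beta-arrestin moving into spots after receptor activation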
[9] = target: T3, Kappa-type opioid receptor; assay: SAR analysis of Antagonists of the Kappa Opioid Receptor (KOR) using an Image-Based Assay - Set 4. [Related pubchem assays (depositor defined):AID1777, AID1785]; type: functional
[10] = target: T4, Heat shock factor protein 1 (Mus musculus, UniProt P38532); assay: enhancement of HSF1-driven luciferase signal – cell-based, NIH3T3, luminescence, dose retest, confirmation (AID 435004); type: functional;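 further: stress induced by proteasome inhibitor MG132 added 30 min after compound; luciferase reporter driven by HSF1 response element in NIH3T3 cells; actives raise luminescence as potentiators of the MG132 stress response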
T4 sequence (P38532 whole entry): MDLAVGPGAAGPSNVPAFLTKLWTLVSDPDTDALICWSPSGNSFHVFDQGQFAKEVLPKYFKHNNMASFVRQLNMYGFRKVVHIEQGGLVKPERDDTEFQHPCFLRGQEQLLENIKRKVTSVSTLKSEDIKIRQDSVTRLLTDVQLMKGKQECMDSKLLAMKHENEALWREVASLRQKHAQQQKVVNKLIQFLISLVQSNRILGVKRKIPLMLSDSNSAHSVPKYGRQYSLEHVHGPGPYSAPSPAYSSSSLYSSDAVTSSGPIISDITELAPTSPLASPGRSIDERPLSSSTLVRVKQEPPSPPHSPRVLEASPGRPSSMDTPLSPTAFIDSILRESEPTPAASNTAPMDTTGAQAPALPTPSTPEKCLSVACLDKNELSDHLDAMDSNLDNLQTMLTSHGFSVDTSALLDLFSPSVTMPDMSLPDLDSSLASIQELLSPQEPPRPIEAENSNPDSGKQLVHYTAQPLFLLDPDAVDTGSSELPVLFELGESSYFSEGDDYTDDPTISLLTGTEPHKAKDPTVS

[11] = target: Induced myeloid leukemia cell differentiation protein Mcl-1 (Homo sapiens, UniProt Q07820); type: functional
[12] = target: Troponin, cardiac muscle (Homo sapiens, UniProt P19429+P45379+P63316); assay: Fluorescence-based biochemical high throughput dose response assay for activators of the calcium sensitivity of cardiac Regulated Thin Filaments (RTF). [Related pubchem assays (depositor defined):AID493008, AID493018, AID504382, AID504383]; type: protein-complex assay
[13] = target: NADPH oxidase 2 (Homo sapiens, UniProt P04839); assay: PubChem AID 435013
[14] = target: NADPH oxidase 1 (Homo sapiens, UniProt Q9Y5S8); assay: Late stage results from the probe development effort to identify inhibitors of NOX1: HEK/293 IC50. [Related pubchem assays: 1796 (Summary AID (NOX1)), 2752 (Primary screen (NOX1 inhibitors, synthesized analogs set 2)), 2664 (Primary screen (NOX1 inhibitors, synthesized analogs)), 1792 (Primary Screen (NOX1)), 2545 (Confirmation screen (NOX1 …; type: functional
[15] = target: NADPH oxidase 3 (Homo sapiens, UniProt Q9HBY0); assay: PubChem AID 435013
[16] = target: NADPH oxidase 4 (Homo sapiens, UniProt Q9NPH5); assay: PubChem AID 435013
Sequence of NADPH oxidase 4 (Q9NPH5 whole entry): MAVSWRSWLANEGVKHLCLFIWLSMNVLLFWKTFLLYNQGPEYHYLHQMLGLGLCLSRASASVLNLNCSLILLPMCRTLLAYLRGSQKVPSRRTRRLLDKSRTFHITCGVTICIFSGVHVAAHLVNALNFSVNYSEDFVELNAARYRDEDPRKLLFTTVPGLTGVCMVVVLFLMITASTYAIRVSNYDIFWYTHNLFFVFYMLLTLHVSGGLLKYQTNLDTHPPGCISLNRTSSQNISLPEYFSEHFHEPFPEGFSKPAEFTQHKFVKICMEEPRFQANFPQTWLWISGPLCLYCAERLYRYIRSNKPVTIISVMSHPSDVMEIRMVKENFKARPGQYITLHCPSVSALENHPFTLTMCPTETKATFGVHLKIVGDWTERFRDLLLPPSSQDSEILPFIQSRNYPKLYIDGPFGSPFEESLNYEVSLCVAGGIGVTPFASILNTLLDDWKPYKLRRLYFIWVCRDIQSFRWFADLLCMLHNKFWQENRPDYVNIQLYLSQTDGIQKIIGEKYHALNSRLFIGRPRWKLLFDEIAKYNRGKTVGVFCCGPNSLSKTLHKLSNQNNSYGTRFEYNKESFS

T1 sequence (P98170 whole entry): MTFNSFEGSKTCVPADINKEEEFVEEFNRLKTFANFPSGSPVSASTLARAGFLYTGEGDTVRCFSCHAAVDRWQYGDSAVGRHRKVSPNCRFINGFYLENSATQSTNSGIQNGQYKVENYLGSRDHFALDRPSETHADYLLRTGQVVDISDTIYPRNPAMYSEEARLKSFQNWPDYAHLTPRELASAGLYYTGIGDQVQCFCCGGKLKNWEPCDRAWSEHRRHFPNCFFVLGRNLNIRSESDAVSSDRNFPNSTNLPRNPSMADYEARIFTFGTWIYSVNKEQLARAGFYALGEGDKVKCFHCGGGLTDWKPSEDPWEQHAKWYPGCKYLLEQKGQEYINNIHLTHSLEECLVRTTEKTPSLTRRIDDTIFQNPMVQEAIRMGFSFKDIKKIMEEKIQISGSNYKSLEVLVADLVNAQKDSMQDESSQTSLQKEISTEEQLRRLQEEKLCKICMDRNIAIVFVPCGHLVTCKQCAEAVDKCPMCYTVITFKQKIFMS
T3 sequence (P41145 whole entry): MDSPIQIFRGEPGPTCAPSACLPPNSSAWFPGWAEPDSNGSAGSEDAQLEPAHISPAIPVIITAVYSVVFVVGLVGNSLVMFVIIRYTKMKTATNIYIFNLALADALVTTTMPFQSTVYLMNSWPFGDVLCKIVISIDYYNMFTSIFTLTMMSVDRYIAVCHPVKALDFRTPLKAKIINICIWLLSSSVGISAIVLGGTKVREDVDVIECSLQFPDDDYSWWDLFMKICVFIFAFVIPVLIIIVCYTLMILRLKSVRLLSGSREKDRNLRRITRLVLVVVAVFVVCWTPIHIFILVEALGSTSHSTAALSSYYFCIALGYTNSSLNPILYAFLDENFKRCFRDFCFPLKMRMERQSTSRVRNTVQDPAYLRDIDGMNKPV
Sequence of Induced myeloid leukemia cell differentiation protein Mcl-1 (Q07820 whole entry): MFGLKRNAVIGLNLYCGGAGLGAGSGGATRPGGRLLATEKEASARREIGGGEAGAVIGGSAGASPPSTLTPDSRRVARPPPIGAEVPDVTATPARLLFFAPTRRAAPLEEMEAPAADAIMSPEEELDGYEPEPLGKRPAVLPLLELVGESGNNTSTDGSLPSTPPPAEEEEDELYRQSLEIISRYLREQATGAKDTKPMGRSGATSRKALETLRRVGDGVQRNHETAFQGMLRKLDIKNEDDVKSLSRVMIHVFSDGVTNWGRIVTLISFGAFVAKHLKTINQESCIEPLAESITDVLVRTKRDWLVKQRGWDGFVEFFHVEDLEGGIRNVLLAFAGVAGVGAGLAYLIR
Sequence of Luciferin 4-monooxygenase (P08659 whole entry): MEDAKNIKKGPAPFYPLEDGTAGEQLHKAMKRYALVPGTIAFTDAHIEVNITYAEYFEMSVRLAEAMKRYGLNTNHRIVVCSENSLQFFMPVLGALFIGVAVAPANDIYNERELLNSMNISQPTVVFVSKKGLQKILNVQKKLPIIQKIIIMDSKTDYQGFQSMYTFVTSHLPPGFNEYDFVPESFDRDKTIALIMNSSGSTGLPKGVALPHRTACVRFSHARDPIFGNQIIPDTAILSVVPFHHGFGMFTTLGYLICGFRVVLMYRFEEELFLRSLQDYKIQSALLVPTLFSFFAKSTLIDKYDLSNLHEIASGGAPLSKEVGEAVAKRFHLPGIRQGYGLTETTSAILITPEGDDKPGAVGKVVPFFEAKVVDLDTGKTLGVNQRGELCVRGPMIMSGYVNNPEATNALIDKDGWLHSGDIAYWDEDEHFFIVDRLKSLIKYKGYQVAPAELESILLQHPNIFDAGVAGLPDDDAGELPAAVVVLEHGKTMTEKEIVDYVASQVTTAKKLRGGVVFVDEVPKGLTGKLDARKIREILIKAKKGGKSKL
Sequence of NADPH oxidase 1 (Q9Y5S8 whole entry): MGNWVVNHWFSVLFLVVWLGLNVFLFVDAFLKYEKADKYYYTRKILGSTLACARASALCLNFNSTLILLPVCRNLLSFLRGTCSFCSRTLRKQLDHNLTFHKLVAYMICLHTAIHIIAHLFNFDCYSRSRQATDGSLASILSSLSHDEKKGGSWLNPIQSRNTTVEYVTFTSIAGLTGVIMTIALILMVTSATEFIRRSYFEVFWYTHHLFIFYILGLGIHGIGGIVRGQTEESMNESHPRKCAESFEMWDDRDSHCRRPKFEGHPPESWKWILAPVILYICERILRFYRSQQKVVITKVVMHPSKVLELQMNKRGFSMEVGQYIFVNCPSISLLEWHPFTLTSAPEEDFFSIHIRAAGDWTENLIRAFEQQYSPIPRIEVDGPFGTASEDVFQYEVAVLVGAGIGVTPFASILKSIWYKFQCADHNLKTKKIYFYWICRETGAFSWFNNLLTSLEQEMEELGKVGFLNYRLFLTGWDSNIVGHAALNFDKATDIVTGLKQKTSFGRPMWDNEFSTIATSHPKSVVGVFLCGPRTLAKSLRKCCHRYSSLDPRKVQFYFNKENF
Sequence of NADPH oxidase 2 (P04839 whole entry): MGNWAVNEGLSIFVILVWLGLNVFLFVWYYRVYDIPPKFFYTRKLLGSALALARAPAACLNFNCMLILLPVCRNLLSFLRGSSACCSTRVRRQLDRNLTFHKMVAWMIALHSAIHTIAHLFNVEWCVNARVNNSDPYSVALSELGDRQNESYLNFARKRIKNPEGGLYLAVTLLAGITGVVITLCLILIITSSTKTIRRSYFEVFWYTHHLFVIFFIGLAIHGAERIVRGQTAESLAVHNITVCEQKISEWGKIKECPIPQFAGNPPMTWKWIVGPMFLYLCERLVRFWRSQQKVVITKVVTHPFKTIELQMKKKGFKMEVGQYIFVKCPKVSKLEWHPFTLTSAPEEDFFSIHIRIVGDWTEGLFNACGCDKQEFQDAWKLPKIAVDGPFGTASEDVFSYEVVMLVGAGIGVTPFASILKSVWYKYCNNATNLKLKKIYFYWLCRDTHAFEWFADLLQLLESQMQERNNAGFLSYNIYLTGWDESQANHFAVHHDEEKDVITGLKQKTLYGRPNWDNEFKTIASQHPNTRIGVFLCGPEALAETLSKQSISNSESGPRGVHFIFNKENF
Sequence of NADPH oxidase 3 (Q9HBY0 whole entry): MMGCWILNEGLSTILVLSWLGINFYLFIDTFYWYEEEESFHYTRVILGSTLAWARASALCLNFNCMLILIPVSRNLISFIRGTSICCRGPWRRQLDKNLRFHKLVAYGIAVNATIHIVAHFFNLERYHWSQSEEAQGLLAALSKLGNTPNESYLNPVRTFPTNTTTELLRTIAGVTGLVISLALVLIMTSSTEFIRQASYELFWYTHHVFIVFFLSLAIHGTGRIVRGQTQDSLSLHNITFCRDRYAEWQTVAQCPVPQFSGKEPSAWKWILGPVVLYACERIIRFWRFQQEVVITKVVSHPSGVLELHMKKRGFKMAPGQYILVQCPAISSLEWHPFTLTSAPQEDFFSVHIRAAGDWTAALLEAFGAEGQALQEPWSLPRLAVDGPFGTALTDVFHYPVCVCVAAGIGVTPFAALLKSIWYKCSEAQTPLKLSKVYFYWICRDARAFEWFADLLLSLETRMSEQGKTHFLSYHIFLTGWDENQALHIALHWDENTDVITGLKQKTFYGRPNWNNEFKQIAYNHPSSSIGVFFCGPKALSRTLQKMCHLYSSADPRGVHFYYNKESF
Sequence of Delta-type opioid receptor (P41143 whole entry): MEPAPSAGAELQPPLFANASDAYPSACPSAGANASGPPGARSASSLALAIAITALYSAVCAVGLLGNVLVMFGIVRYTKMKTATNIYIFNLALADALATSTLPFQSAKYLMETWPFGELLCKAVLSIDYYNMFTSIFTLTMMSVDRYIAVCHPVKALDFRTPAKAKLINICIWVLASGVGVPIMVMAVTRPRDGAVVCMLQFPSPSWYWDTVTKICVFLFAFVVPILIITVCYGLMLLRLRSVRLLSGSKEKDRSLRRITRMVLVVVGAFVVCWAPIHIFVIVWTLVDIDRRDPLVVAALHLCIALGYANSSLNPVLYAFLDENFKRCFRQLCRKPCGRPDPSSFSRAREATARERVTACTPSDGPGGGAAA
Sequence of Mu-type opioid receptor (P35372 whole entry): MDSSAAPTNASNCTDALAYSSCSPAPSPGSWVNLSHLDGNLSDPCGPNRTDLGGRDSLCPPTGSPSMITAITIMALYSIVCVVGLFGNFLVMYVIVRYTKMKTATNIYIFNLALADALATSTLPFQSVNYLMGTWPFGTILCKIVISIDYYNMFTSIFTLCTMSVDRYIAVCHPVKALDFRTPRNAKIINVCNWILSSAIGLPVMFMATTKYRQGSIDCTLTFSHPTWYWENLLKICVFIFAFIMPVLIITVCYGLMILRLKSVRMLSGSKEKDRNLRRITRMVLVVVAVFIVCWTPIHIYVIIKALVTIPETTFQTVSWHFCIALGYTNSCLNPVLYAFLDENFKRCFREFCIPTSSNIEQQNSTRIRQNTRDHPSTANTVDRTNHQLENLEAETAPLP

SMILES: Cc1ccnc(N2C(=O)c3ccccc3C2O)c1 (stereo unspecified)
- EC50 [1]: 6.49 µM (active)
- IC50 [2]: > 100 µM (inactive)
- EC50 [3]: 27.7 µM (active)
- IC50 [4]: > 100 µM (not active)

SMILES: CCCNC(=O)Nc1ccc2nc(-c3ccco3)c(-c3ccco3)nc2c1
- IC50 [5]: 1.01 µM (active)

SMILES: CCCc1ccc(S(=O)(=O)NCc2ccc(C(=O)NCCN(Cc3ccccc3)C(C)C)cc2)cc1
- IC50 [6]: > 32 µM (inactive)
- IC50 [7]: 2 µM (active)
- IC50 [8]: > 32 µM (inactive)
- IC50 [9]: 2.25 µM (active)

SMILES: COc1ccc(N/C=C2\C(=O)CCc3c2oc2cc(Cl)c(O)c(Cl)c32)cc1
- EC50 [10]: > 260 µM (inactive)
- IC50 [11]: 4.32 µM (active)
- EC50 [12]: 3.93 µM (active)

SMILES: FC(F)(F)c1ccc2c(c1)Nc1ccccc1S2
- IC50 [13]: 9 µM (active)
- IC50 [14]: 1 µM (active)
- IC50 [15]: 7.5 µM (active)
- IC50 [16]: 5 µM (active)
